# Where two headings read alike, the source gives them in different places.
# Experiments:
# Assay type in all cases: in vivo
# [1] = test system: Plasmopara vilicola (the causal agent of grape downy mildew); assay: Test A: grape downy mildew, test suspension sprayed on grape seedlings after inoculation, visual disease rating
# Summary of the method: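 Curative spray: spores applied first, plants kept 24 h in saturated air at 20 °C and dried before treatment, then 5 days at 20 °C plus 24 h saturated. Suspension: acetone (3% of volume) in 1:1 acetone/water, 250 ppm Trem 014, sprayed to run-off (200 ppm ≈ 500 g/ha); visual 0–100 control rating.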
# [2] = test system: Phytophthora infestans (the causal agent of tomato late blight); assay: whole plant or invertebrate
# [3] = test system: Phytophthora infestans (the causal agent of tomato late blight); assay: whole plant or invertebrate; remark: listed apart in the source
# [4] = compounds without asterisk (application rate not given), 100 = 100% disease control, 0 = no control relative to the controls
# [5] = Plasmopara, 144 h, * tested at 40 ppm, read-out: Percent Disease Control, Test A
# [6] = Phytophthora infestans, 144 h, read-out: Percent Disease Control, Test B
# [7] = Phytophthora infestans, 96 h, read-out: Percent Disease Control, Test C
compound,measurement,setting,value
Cc1cc(C(F)(F)F)nn1CC(=O)N1CCC(c2nc(C3=NOC(c4ccc(F)cc4)C3)cs2)CC1 (stereo not drawn) [Compound 96],"Percent Disease Control, Test A",[1]; * tested at 40 ppm,100%
same,"Percent Disease Control, Test B",[2]; * tested at 40 ppm,100%
same,"Percent Disease Control, Test C",[3]; * tested at 40 ppm,99%
"Cc1cc(C(F)(F)F)nn1CC(=O)N1CCC(c2nc(C3=NOC4(CCC(C#N)CC4)C3)cs2)CC1 (single isomer, unassigned) [Compound 255]","Percent Disease Control, Test A",[1]; * tested at 40 ppm,95%
same,"Percent Disease Control, Test B",[2]; * tested at 40 ppm,100%
same,"Percent Disease Control, Test C",[3]; * tested at 40 ppm,93%
Cc1cc(C(F)(F)F)nn1CC(=O)N1CCC(c2nc(-c3ccc(F)cc3)cs2)CC1 [Compound 245],"Percent Disease Control, Test A",[1]; * tested at 40 ppm,99%
same,"Percent Disease Control, Test B",[2]; * tested at 40 ppm,74%
same,"Percent Disease Control, Test C",[3]; * tested at 40 ppm,0%
COC1ON=C(c2csc(C3CCN(C(=O)Cn4nc(C(F)(F)F)cc4C)CC3)n2)CC1c1ccccc1 (stereo not drawn) [Compound 81],"Percent Disease Control, Test A",[1]; [4],93%
same,"Percent Disease Control, Test B",[2]; [4],92%
same,"Percent Disease Control, Test C",[3]; [4],77%
Cc1cc(C(F)(F)F)nn1CC(=O)N1CCC(c2nc(-c3ccc(Br)cc3)cs2)CC1 [Compound 249],"Percent Disease Control, Test A",[1]; * tested at 40 ppm,99%
same,"Percent Disease Control, Test B",[2]; * tested at 40 ppm,64%
same,"Percent Disease Control, Test C",[3]; * tested at 40 ppm,0%
Cc1cc(C(F)(F)F)nn1CC(=O)N1CCC(c2nc(-c3ccc(OC(F)(F)F)cc3)cs2)CC1 [Compound 269],"Percent Disease Control, Test A",[1]; [4],100%
same,"Percent Disease Control, Test B",[2]; [4],100%
same,"Percent Disease Control, Test C",[3]; [4],0%
Cc1cc(C(F)(F)F)nn1CC(=O)N1CCC(c2nc(C3=NOC4(CCCCC4)C3)cs2)CC1 [Compound 169],"Percent Disease Control, Test A",[1]; [4],100%
same,"Percent Disease Control, Test B",[2]; [4],100%
same,"Percent Disease Control, Test C",[3]; [4],99%
Cc1cc(C(F)(F)F)nn1CC(=O)N1CCC(c2nc(-c3ccc(C(C)C)cc3)cs2)CC1 [Compound 273],"Percent Disease Control, Test A",[1]; [4],100%
same,"Percent Disease Control, Test B",[2]; [4],100%
same,"Percent Disease Control, Test C",[3]; [4],90%
Cc1c(C2(C)CC(c3csc(C4CCN(C(=O)Cn5nc(C(F)(F)F)cc5C)CC4)n3)=NO2)sc2cccc(Cl)c12 (stereo not drawn) [Compound 146],"Percent Disease Control, Test A",[1]; [4],83%
same,"Percent Disease Control, Test B",[2]; [4],100%
same,"Percent Disease Control, Test C",[3]; [4],53%
CSc1ccc(-c2csc(C3CCN(C(=O)Cn4nc(C(F)(F)F)cc4C)CC3)n2)cc1 [Compound 272],"Percent Disease Control, Test A",[1]; [4],100%
same,"Percent Disease Control, Test B",[2]; [4],100%
same,"Percent Disease Control, Test C",[3]; [4],100%
Cc1cc(C(F)(F)F)nn1CC(=O)N1CCC(c2nc(C3=NOC(C(C)(C)C)C3)cs2)CC1 (stereo not drawn) [Compound 56],"Percent Disease Control, Test A",[1]; [4],99%
same,"Percent Disease Control, Test B",[2]; [4],100%
same,"Percent Disease Control, Test C",[3]; [4],99%
Cc1cc(C(F)(F)F)nn1CC(=O)N1CCC(c2nc(C3=NN(C(=O)C(C)C)C4(CCCc5ccccc54)O3)cs2)CC1 (stereo not drawn) [Compound 228],"Percent Disease Control, Test A",[1]; [4],99%
same,"Percent Disease Control, Test B",[2]; [4],100%
same,"Percent Disease Control, Test C",[3]; [4],100%
"Cc1cc(C(F)(F)F)nn1CC(=O)N1CCC(c2nc(C3=NO[C@@H](c4c(F)cccc4F)C3)cs2)CC1 [Compound 214, 1-[4-[4-[(5R)-5-(2,6-difluorophenyl)-4,5-dihydro-3-isoxazolyl]-2-thiazolyl]-1-piperidinyl]-2-[5-methyl-3-(trifluoromethyl)-1H-pyrazol-1-yl]ethanone]",pest or weed control at 40 ppm,[1]; [5],100%
same,pest or weed control at 40 ppm,[2]; [6],100%
same,pest or weed control at 40 ppm,[3]; [7],99%
Cc1cc(C(F)(F)F)nn1CC(=O)N1CCC(c2nc(C3=NOC(c4cccc(C(F)(F)F)c4)C3)cs2)CC1 (stereo not drawn) [Compound 115],"Percent Disease Control, Test A",[1]; * tested at 40 ppm,100%
same,"Percent Disease Control, Test B",[2]; * tested at 40 ppm,100%
same,"Percent Disease Control, Test C",[3]; * tested at 40 ppm,99%
CCCc1ccc(-c2csc(C3CCN(C(=O)Cn4nc(C(F)(F)F)cc4C)CC3)n2)cc1 [Compound 271],"Percent Disease Control, Test A",[1]; [4],100%
same,"Percent Disease Control, Test B",[2]; [4],100%
same,"Percent Disease Control, Test C",[3]; [4],72%
"C[C@]1(c2ccccc2)CC(c2csc(C3CCN(C(=O)Cn4nc(C(F)(F)F)cc4C(F)(F)F)CC3)n2)=NO1 [Compound 260, 2-[3,5-bis(triflyoromethyl)-1H-pyrazol-1-yl]-1-[4-[4-[(5R)-4,5-dihydro-5-methyl-5-phenyl-3-isoxazolyl]-2-thiazolyl]-1-piperidinyl]ethanone]","Percent Disease Control, Test A",[1]; ** tested at l0 ppm,100%
same,"Percent Disease Control, Test B",[2]; ** tested at l0 ppm,100%
same,"Percent Disease Control, Test C",[3]; ** tested at l0 ppm,96%
COC(=O)c1ccc(-c2csc(C3CCN(C(=O)Cn4nc(C(F)(F)F)cc4C)CC3)n2)cc1 [Compound 270],"Percent Disease Control, Test A",[1]; [4],99%
same,"Percent Disease Control, Test B",[2]; [4],83%
same,"Percent Disease Control, Test C",[3]; [4],0%
Cc1ccc(C2CC(c3csc(C4CCN(C(=O)Cn5nc(C(F)(F)F)cc5C)CC4)n3)=NO2)c(C)c1 (stereo not drawn) [Compound 136],"Percent Disease Control, Test A",[1]; * tested at 40 ppm,99%
same,"Percent Disease Control, Test B",[2]; * tested at 40 ppm,100%
same,"Percent Disease Control, Test C",[3]; * tested at 40 ppm,99%
Cc1cc(C(F)(F)F)nn1CC(=O)N1CCC(c2nc(C3=NOC(N4Cc5ccccc5C4=O)C3)cs2)CC1 (stereo not drawn) [Compound 233],"Percent Disease Control, Test A",[1]; * tested at 40 ppm,100%
same,"Percent Disease Control, Test B",[2]; * tested at 40 ppm,100%
same,"Percent Disease Control, Test C",[3]; * tested at 40 ppm,100%
"Cc1cc(C(F)(F)F)nn1CC(=O)N1CCC(c2nc(C3=NO[C@@](C#N)(c4ccccc4)C3)cs2)CC1 (racemic) [Compound 265, (5R)-4,5-dihydro-3-[2-[1-[2-[5-methyl-3-(trifluoromethyl)-1H-pyrazol-1-yl]acetyl]-4-piperidinyl]-4-thiazolyl]-5-phenyl-5-isoxazolecarbonitrile]",pest or weed control at 10 µg/mL,"[1]; Plasmopara, 144 h, ** tested at l0 ppm, read-out: Percent Disease Control, Test A",100%
same,pest or weed control at 10 µg/mL,[2]; [6],100%
same,pest or weed control at 10 µg/mL,[3]; [7],98%
Cc1cc(C(F)(F)F)nn1CC(=O)N1CCC(c2nc(C3=NOC(CN4C(=O)c5ccccc5C4=O)C3)cs2)CC1 (stereo not drawn) [Compound 278],"Percent Disease Control, Test A",[1]; * tested at 40 ppm,94%
same,"Percent Disease Control, Test B",[2]; * tested at 40 ppm,100%
same,"Percent Disease Control, Test C",[3]; * tested at 40 ppm,99%
"1-[4-[4-[(5R)-4,5-dihydro-5-phenyl-3-isoxazolyl]-2-thiazolyl]-1-piperidinyl]-2-[5-methyl-3-(trifluoromethyl)-1H-pyrazol-1-yl]ethanone [Compound 3]","Percent Disease Control, Test A",[1]; [4],52%
same,"Percent Disease Control, Test B",[2]; [4],47%
same,"Percent Disease Control, Test C",[3]; [4],0%
"COc1cc(OC)c([C@H]2CC(c3csc(C4CCN(C(=O)Cn5nc(C(F)(F)F)cc5C)CC4)n3)=NO2)c(OC)c1 (racemic) [Compound 155, 1-[4-[4-[(5R)-4,5-dihydro-5-(2,4,6-trimethoxyphenyl)-3-isoxazolyl]-2-thiazolyl]-1-piperidinyl]-2-[5-methyl-3-(trifluoromethyl)-1H-pyrazol-1-yl]ethanone]",pest or weed control at 40 ppm,[1]; [5],100%
same,pest or weed control at 40 ppm,[2]; [6],100%
same,pest or weed control at 40 ppm,[3]; [7],99%
Cc1cc(C)n(CC(=O)N2CCC(c3nc(C4=NO[C@]5(CCc6ccccc65)C4)cs3)CC2)n1 [Compound 165],"Percent Disease Control, Test A",[1]; ** tested at l0 ppm,99%
same,"Percent Disease Control, Test B",[2]; ** tested at l0 ppm,100%
same,"Percent Disease Control, Test C",[3]; ** tested at l0 ppm,99%
Cc1cc(C(F)(F)F)nn1CC(=O)N1CCC(c2nc(C3=NOC(N4C(=O)CCCC4=O)C3)cs2)CC1 (stereo not drawn) [Compound 243],"Percent Disease Control, Test A",[1]; ** tested at l0 ppm,99%
same,"Percent Disease Control, Test B",[2]; ** tested at l0 ppm,100%
same,"Percent Disease Control, Test C",[3]; ** tested at l0 ppm,100%
Cc1ccccc1C1(C)CC(c2csc(C3CCN(C(=O)Cn4nc(C(F)(F)F)cc4C)CC3)n2)=NO1 (stereo not drawn) [Compound 205],"Percent Disease Control, Test A",[1]; * tested at 40 ppm,99%
same,"Percent Disease Control, Test B",[2]; * tested at 40 ppm,100%
same,"Percent Disease Control, Test C",[3]; * tested at 40 ppm,99%
CC(=O)N1N=C(c2csc(C3CCN(C(=O)Cn4nc(C(F)(F)F)cc4C)CC3)n2)OC1c1ccccc1 (stereo not drawn) [Compound 181],"Percent Disease Control, Test A",[1]; [4],80%
same,"Percent Disease Control, Test B",[2]; [4],100%
same,"Percent Disease Control, Test C",[3]; [4],97%
Cc1cc(C(F)(F)F)nn1CC(=O)N1CCC(c2nc(C3=NCC(c4ccccc4)O3)cs2)CC1 (stereo not drawn) [Compound 47],"Percent Disease Control, Test A",[1]; [4],0%
same,"Percent Disease Control, Test B",[2]; [4],85%
same,"Percent Disease Control, Test C",[3]; [4],47%
Cc1cc(C(F)(F)F)nn1CC(=O)N1CCC(c2nc(C3=NCC(c4ccccc4)O3)cs2)CC1 (stereo not drawn) [Compound 50],"Percent Disease Control, Test A",[1]; [4],0%
same,"Percent Disease Control, Test B",[2]; [4],100%
same,"Percent Disease Control, Test C",[3]; [4],99%
CC(=O)N1N=C(c2csc(C3CCN(C(=O)Cn4nc(C(F)(F)F)cc4C)CC3)n2)OC12CCCc1ccccc12 (stereo not drawn) [Compound 177],"Percent Disease Control, Test A",[1]; * tested at 40 ppm,93%
same,"Percent Disease Control, Test B",[2]; * tested at 40 ppm,100%
same,"Percent Disease Control, Test C",[3]; * tested at 40 ppm,99%
Cc1cc(C(F)(F)F)nn1CC(=O)N1CCC(c2nc(Cn3ccc(-c4ccccc4)n3)cs2)CC1 [Compound 160],"Percent Disease Control, Test A",[1]; [4],68%
same,"Percent Disease Control, Test B",[2]; [4],80%
same,"Percent Disease Control, Test C",[3]; [4],17%
Cc1cc(C(F)(F)F)nn1CC(=O)N1CCC(c2nc(C3=NC(c4ccccc4)CO3)cs2)CC1 (stereo not drawn) [Compound 31],"Percent Disease Control, Test A",[1]; ** tested at l0 ppm,84%
same,"Percent Disease Control, Test B",[2]; ** tested at l0 ppm,83%
same,"Percent Disease Control, Test C",[3]; ** tested at l0 ppm,60%
Cc1cc(C(F)(F)F)nn1CC(=O)N1CCC(c2nc(C3=CC(C)(c4ccccc4)OC3=O)cs2)CC1 (stereo not drawn) [Compound 145],"Percent Disease Control, Test A",[1]; [4],17%
same,"Percent Disease Control, Test B",[2]; [4],58%
same,"Percent Disease Control, Test C",[3]; [4],0%
"Cc1cccc(C)c1[C@H]1CC(c2csc(C3CCN(C(=O)Cn4nc(C(F)(F)F)cc4C)CC3)n2)=NO1 [Compound 178, 1-[4-[4-[(5R)-5-(2,6-dimethylphenyl)-4,5-dihydro-3-isoxazolyl]-2-thiazolyl]-1-piperidinyl]-2-[5-methyl-3-(trifluoromethyl)-1H-pyrazol-1-yl]ethanone]",pest or weed control at 40 ppm,[1]; [5],100%
same,pest or weed control at 40 ppm,[2]; [6],100%
same,pest or weed control at 40 ppm,[3]; [7],99%
COC(=O)c1ccccc1C1CC(c2csc(C3CCN(C(=O)Cn4nc(C(F)(F)F)cc4C)CC3)n2)=NO1 (stereo not drawn) [Compound 221],"Percent Disease Control, Test A",[1]; [4],100%
same,"Percent Disease Control, Test B",[2]; [4],100%
same,"Percent Disease Control, Test C",[3]; [4],99%
